Assay results reported in patent publication US10696688B2, “Fused pyrimidines as isoform selective phosphoinositide-3-kinase-alpha inhibitors and process for preparation thereof” (Council of Scientific and Industrial Research, priority 2015, dated 2020).
In brackets after ≈: the same amount, converted by molar mass. Several values for one entry are separate records, joined by “and”; a condition that tells them apart may be missing. Identical values can stand only once. Like-named read-outs stand apart in the source and are kept apart here. One block for each compound: values may come before it.

Tests used:
[1] = Thermodynamic aqueous solubility, 96-well plate protocol; type: physicochemical; conditions: for solubility: 25 °C, pH 7, water, thermodynamic from solid
Protocol: The thermodyanamic aqueous solubility was determined using 96-plate plate protocol (Bharate, S. S. and Vishwakarma, R. A. 2015, Bioorg. Med. Chem. Lett. 25, 1561-1567). […] Briefly, the compounds were loaded into 96-well plate in the form of methanolic solution, followed by evaporation of solvent to get 1, 2, 4, 8, 16, 25, 40, 80, 160 and 300 μg of compound in solid form in wells. Thereafter, 200 μl of dissolution medium was added to the wells and plates were shaken horizontally at 300 rpm for 4 h at room temperature (25±1° C.). The plates were covered with aluminium foil and were kept overnight at room temperature for equilibration. Later, the plates were centrifuged at 3000 rpm for 15 min (Jouan centrifuge BR4i). Supernatant (50 μl) was withdrawn into UV 96-well plates (Corning® 96 Well Clear Hat Bottom UV-Transparent Microplate) for analyses with microplate reader (Molecular Devices, USA) at corresponding λmax of the sample. The analysis was performed in triplicate for each compound. The solubility curve of concentration (μg/mL) vs absorbance was plotted to find out saturation point and the corresponding concentration was noted.

[2] = system: Ehrlich ascites carcinoma (EAC) cells; assay: In-vivo activity in Ehrlich solid tumor model; set-up: species or system swiss mice; conditions: 22 at 25 mg/kg i.p., 5-fluorouracil at 22 mg/kg i.p., day 1-9; for Day 13 % Tumor Growth Inhibition: day 13, versus saline control
PI3K-beta = PI3K-beta (Homo sapiens, UniProt P42338); assay: PI3K-β assay (ADP-Glo); type: biochemical
PI3K-gamma = PI3K-gamma (Homo sapiens, UniProt P48736); assay: PI3K-γ assay (ADP-Glo); type: biochemical
PI3K-alpha = PI3K-alpha (Homo sapiens, UniProt P42336); assay: PI3K-α assay (ADP-Glo); type: biochemical; conditions: for inhibition at 0.5 µM / % PI3Kα inhibition at 500 nM: at 500 nM (0.5 μM), NI = no inhibition at tested concentration; for inhibition at 0.5 µM: read-out: % PI3Kα inhibition at 500 nM; for % PI3Kα inhibition at 500 nM: 0.5 µM
Protocol: Compounds proposed in present invention were evaluated for their inhibitory activity on phosphoinositide-3-kinase-α and other isoforms (β, γ and δ). The preliminary screening was performed at 0.5 μM. The protocols used for these bioassays are as follows:
PI3K-alpha (diluted in 12.5 mM Glycine-NaOH (pH 8.5), 50 mM KCl, 2.5 mM MgCl2, 1 mM DTT, 0.05% CHAPS) is assayed in total volume of 20 μl containing 12.5 mM glycine-NaOH (pH 8.5), 50 mM KCl, 2.5 mM MgCl2, 1 mM DTT, 0.05% CHAPS, 0.01 mM ATP and 0.05 mM diC8 PIP2. The enzyme is assayed for 80 min after which 20 μl of ADP-Glo reagent is added. After a further incubation of 40 min, 40 μl of Kinase Detection Buffer is added. The assays are incubated for 40 min and then read on PerkinElmer Envision for 1 sec/well.

PI3K-delta = PI3K-delta (Homo sapiens, UniProt O00329); assay: PI3K-δ assay (ADP-Glo); type: biochemical
[3] = system: MIAPaCa-2 (pancreatic cancer); assay: Cytotoxicity, MTT assay; type: cell-based; conditions: Homo sapiens, MIA PaCa-2, 48 h treatment
Protocol: (§1) Selected compounds proposed in the present invention were evaluated for their cytotoxic effect against panel of 3 cancer cell line viz. MIAPaCa-2 (pancreatic cancer), A-549 (lung cancer), and MDA-MB-231 (breast cancer) using MTT assay. In each well of a 96-well plate, 3×10^3 cells were grown in 100 μL of medium. After 24 h, each test molecules were added to achieve a final concentration of 10 to 0.01 μmol/L, respectively. After 48 h of treatment, 20 μL of 2.5 mg/mL MTT (Organics Research, Inc.) solution in phosphate buffer saline was added to each well. […], supernatant was removed and formazan crystals were dissolved in 200 μL of DMSO. Absorbance was then measured at 570 nm using an absorbance plate reader (Bio-Rad Microplate Reader). Data are expressed as the percentage of viable cells in treated relative to non-treated conditions. Each experiment was repeated thrice and data was expressed as mean±SD of three independent experiments (Mordant, P. et al., Mol. Cancer Ther. 2010, 9, 358).

[4] = system: MDA-MB-231 (breast cancer); assay: Cytotoxicity, MTT assay; type: cell-based; conditions: Homo sapiens, 48 h treatment
Protocol: as §1

A-549 (lung cancer) = assay: Cytotoxicity, MTT assay; type: cell-based; conditions: Homo sapiens, A549, 48 h treatment
Protocol: as §1

[5] = dead/total animals; 22 at 25 mg/kg i.p., 5-fluorouracil at 22 mg/kg i.p., day 1-9
[6] = via glucuronidation of phenolic hydroxyl group; cited from earlier work
[7] = water, in H2O at pH = 7, read-out: Solubility μg/ml in H2O at pH = 7
[8] = water (aqueous, pH 7), pH = 7, read-out: Aqueous Solubility (μg/ml) at pH = 7
[9] = water, pH = 7, read-out: Aqueous Solubility (μg/ml) at pH = 7

PI3K-gamma, sequence (P48736 whole entry): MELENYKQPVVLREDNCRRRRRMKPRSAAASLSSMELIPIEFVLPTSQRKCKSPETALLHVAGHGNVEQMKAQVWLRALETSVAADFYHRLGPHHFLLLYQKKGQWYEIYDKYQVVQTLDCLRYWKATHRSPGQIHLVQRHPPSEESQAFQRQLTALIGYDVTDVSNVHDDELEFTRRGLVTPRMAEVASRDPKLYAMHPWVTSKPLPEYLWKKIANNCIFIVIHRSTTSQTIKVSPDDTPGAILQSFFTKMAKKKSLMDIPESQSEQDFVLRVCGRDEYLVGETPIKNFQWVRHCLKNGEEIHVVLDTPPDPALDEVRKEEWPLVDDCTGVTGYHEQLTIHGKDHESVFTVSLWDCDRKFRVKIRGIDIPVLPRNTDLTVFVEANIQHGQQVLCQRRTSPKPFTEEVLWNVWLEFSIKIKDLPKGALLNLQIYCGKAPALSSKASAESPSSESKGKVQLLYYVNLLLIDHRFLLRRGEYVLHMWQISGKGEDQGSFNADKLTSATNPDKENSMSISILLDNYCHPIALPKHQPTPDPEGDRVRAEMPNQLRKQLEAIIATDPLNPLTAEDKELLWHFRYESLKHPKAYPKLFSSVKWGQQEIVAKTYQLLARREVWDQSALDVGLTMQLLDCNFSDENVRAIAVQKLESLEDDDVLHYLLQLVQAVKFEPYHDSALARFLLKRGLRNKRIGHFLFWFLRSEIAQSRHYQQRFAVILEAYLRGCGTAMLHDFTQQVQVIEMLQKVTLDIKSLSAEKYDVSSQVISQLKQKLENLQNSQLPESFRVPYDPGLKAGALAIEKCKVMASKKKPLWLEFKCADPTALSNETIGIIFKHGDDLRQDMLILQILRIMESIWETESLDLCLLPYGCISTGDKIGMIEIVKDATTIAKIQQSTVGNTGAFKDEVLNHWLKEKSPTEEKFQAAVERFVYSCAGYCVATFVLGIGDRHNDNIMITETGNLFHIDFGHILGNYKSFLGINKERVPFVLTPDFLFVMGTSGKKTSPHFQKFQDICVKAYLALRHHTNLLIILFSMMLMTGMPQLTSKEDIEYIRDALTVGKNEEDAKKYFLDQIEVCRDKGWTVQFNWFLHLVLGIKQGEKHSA
PI3K-alpha, sequence (P42336 whole entry, canonical isoform): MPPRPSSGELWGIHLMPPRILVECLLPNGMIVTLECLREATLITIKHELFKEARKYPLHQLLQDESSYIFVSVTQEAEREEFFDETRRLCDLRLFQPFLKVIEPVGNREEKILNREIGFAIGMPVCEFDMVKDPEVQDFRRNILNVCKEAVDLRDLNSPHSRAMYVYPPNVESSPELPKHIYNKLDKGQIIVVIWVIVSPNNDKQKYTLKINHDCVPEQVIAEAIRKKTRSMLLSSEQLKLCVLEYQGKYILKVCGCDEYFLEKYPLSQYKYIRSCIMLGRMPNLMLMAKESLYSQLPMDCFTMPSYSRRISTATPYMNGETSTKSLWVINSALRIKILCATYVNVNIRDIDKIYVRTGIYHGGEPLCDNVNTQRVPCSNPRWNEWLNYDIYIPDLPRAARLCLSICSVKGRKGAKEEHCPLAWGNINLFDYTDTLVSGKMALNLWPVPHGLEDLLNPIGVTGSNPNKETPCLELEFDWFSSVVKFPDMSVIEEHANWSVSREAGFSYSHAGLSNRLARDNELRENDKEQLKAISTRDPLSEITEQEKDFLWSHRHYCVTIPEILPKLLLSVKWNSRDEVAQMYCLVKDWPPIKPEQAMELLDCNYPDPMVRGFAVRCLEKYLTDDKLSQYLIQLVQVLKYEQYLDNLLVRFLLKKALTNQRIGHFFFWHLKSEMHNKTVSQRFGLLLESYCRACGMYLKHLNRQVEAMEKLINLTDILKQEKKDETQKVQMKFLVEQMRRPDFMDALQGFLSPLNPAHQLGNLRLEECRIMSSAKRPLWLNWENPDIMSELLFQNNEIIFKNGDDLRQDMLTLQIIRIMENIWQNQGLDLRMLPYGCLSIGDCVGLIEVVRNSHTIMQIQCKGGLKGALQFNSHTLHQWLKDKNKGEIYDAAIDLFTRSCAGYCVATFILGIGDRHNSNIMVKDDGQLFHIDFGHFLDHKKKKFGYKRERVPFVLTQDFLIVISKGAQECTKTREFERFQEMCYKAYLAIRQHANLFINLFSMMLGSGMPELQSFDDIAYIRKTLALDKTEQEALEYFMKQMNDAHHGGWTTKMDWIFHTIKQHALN
PI3K-alpha, sequence (P27986 whole entry partner, canonical isoform): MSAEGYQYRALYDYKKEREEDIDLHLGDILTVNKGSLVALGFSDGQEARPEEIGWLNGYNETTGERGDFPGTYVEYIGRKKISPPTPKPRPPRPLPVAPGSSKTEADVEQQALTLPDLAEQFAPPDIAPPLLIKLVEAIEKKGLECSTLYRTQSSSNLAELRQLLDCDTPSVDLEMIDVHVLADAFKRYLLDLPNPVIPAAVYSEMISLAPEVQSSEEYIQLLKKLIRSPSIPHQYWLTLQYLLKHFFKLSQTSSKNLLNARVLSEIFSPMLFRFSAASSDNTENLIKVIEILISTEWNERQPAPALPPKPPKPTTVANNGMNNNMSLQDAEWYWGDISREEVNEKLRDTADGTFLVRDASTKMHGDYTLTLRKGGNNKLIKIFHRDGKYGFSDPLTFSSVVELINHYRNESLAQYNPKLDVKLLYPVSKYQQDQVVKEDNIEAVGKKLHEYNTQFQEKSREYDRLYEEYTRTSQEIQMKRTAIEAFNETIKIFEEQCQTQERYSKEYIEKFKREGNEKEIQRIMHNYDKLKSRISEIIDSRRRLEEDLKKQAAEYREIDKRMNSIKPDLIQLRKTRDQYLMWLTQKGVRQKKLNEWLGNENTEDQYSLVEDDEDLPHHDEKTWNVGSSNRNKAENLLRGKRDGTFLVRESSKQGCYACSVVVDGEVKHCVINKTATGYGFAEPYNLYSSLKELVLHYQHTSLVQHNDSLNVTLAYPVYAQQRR
PI3K-beta, sequence (P42338 whole entry): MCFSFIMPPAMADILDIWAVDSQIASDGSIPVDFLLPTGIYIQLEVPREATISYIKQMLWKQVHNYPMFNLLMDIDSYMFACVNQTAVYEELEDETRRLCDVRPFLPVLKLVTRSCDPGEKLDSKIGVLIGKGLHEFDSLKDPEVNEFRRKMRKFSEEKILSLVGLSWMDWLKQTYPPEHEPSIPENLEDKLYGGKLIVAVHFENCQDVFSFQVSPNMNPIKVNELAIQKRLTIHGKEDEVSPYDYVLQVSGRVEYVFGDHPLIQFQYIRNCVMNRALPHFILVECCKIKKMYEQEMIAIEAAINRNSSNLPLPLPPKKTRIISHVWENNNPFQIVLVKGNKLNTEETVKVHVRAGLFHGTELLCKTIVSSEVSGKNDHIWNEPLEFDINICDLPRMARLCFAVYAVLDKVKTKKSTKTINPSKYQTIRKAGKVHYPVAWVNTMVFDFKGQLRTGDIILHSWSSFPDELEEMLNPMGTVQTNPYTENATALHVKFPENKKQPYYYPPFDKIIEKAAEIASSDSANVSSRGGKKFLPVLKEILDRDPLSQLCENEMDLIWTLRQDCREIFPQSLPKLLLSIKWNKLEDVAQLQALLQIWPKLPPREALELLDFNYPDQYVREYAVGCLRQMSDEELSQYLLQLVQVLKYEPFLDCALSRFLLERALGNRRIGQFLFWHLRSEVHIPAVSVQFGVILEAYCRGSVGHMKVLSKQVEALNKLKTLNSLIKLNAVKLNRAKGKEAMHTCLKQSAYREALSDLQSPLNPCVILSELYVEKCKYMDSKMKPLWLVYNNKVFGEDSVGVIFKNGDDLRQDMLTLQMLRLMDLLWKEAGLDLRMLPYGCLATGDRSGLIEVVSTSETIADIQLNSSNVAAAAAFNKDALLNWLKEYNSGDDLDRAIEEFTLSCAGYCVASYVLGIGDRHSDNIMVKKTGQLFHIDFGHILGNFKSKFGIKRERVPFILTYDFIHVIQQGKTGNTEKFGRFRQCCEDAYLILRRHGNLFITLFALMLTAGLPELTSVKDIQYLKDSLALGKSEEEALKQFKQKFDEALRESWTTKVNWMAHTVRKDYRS
PI3K-beta, sequence (P27986 whole entry partner): as the sequence (P27986 whole entry partner, canonical isoform) above
PI3K-delta, sequence (O00329 whole entry): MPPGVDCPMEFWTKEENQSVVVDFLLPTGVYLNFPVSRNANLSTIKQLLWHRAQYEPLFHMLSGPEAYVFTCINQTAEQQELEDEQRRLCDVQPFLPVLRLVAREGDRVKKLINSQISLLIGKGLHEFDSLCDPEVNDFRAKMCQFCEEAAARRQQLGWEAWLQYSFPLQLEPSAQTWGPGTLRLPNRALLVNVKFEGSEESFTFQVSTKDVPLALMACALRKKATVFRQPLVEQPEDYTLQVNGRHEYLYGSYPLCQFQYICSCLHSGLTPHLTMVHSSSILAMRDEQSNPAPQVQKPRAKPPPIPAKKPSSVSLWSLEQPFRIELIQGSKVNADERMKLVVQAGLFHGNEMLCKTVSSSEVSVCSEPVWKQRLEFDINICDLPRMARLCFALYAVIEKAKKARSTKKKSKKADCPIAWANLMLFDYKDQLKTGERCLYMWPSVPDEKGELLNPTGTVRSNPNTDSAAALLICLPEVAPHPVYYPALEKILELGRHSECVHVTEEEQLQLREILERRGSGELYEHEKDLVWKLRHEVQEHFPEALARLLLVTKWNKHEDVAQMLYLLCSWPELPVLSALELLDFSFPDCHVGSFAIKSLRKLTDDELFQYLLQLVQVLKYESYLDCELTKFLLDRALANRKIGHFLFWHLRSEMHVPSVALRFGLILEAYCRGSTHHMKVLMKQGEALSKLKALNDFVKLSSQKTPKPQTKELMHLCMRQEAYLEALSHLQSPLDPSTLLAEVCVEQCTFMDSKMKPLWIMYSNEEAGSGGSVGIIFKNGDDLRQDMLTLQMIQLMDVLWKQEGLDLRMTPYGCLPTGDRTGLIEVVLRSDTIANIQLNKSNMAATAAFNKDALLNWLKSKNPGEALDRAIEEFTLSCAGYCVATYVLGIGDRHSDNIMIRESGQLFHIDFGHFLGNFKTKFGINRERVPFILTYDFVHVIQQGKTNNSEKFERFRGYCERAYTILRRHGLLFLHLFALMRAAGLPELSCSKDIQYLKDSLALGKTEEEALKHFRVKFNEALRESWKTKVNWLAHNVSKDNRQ
PI3K-delta, sequence (P27986 whole entry partner): as the sequence (P27986 whole entry partner, canonical isoform) above

SMILES: CCc1ccc(NC(=O)NC2CCN(c3nc(N4CCOCC4)c4sccc4n3)CC2)cc1 [Compound 22, 1-(4-ethylphenyl)-3-(1-(4-morpholinothieno[3,2-d]pyrimidin-2-yl)piperidin-4-yl)urea]
solubility [1, 7]: 800 µg/mL (≈ 1710 µM) | Day 13 % Tumor Growth Inhibition [2]: 32.7% and 32.73% | Day 13 Avg. tumor weights [2]: 1128.4 mg | IC50 (PI3K-beta): > 20 µM | Fold-selectivity for PI3K-α with respect to other isoforms PI3K-β (PI3K-beta; PI3K-α versus PI3K-β): >500 fold | % inhibition of PI3K-β (PI3K-beta; up to 20 μM): 0% | IC50 (PI3K-gamma): > 20 µM | Fold-selectivity for PI3K-α with respect to other isoforms PI3K-γ (PI3K-gamma; PI3K-α versus PI3K-γ): >500 fold | % inhibition of PI3K-γ (PI3K-gamma; up to 20 μM): 0% | inhibition at 0.5 µM (PI3K-alpha): 74% | IC50 (PI3K-alpha; read-out: IC50 for PI3Kα): 0.04 µM | Fold-selectivity for PI3K-α with respect to other isoforms PI3K-δ (PI3K-delta): >500 fold | IC50 (PI3K-delta): > 20 µM | % inhibition of PI3K-δ (PI3K-delta; up to 20 μM): 0% | IC50 [3]: 5 µM | IC50 [4]: 4 µM | IC50 (A-549 (lung cancer)): 7 µM

SMILES: CC(C)(C)OC(=O)NC1CCN(c2nc(N3CCOCC3)c3sc(C(C)(C)O)cc3n2)CC1 [Compound 17, tert-butyl (1-(6-(2-hydroxypropan-2-yl)-4-morpholinothieno[3,2-d]pyrimidin-2-yl)piperidin-4-yl)carbamate]
solubility [1, 8]: 200 µg/mL (≈ 419 µM) | solubility [1, 9]: > 200 µg/mL | % PI3Kα inhibition at 500 nM (PI3K-alpha): 81% | inhibition at 0.5 µM (PI3K-alpha): > 70%

SMILES: CCOC(=O)c1ccc(NC(=O)NC2CCN(c3nc(N4CCOCC4)c4oc5ncccc5c4n3)CC2)cc1 [Compound 8, ethyl 4-(3-(1-(4-morpholinopyrido[3′,2′:4,5]furo[3,2-d]pyrimidin-2-yl)piperidin-4-yl)ureido)benzoate]
solubility [1, 8]: 10 µg/mL (≈ 18.3 µM) | % PI3Kα inhibition at 500 nM (PI3K-alpha): 85% | inhibition at 0.5 µM (PI3K-alpha): > 70% | IC50 (PI3K-alpha; read-out: IC50 for PI3K (μM) PI3K-α): 0.008 µM | IC50 [3]: 8 µM | IC50 [4]: 8 µM | IC50 (A-549 (lung cancer)): 8 µM

SMILES: CC(C)(C)OC(=O)NC1CCN(c2nc(N3CCOCC3)c3oc4ncccc4c3n2)CC1 [Compound 6, tert-butyl (1-(4-morpholinopyrido [3′,2′:4,5]furo[3,2-d]pyrimidin-2-yl)piperidin-4-yl)carbamate]
solubility [1, 8]: 10 µg/mL (≈ 22 µM) | inhibition at 0.5 µM (PI3K-alpha): 67.3%

SMILES: O=c1[nH]cc(F)c(=O)[nH]1 [5-Fluorouracil, reference compound]
Day 13 % Tumor Growth Inhibition [2]: 50.04% | Day 13 Avg. tumor weights [2]: 929.42 mg | Mortality [5]: 0/7

SMILES: CN1CCN(C(=O)c2ccc(NC(=O)NC3CCN(c4nc(N5CCOCC5)c5oc6ncccc6c5n4)CC3)cc2)CC1 [Compound 10, 1-(4-(4-methylpiperazine-1-carbonyl)phenyl)-3-(1-(4-morpholinopyrido[3′,2′:4,5]furo[3,2-d]pyrimidin-2-yl)piperidin-4-yl)urea]
Aqueous Solubility (μg/ml) at pH = 7 ([1]; pH = 7): 400 μg/ml | solubility [1, 9]: > 200 µg/mL | % PI3Kα inhibition at 500 nM (PI3K-alpha): 76.8% | inhibition at 0.5 µM (PI3K-alpha): > 70% | IC50 (PI3K-alpha; read-out: IC50 for PI3Kα): 0.08 µM | IC50 [3]: 8 µM | IC50 [4]: 40 µM | IC50 (A-549 (lung cancer)): 9 µM

SMILES: CCOC(=O)c1ccc(NC(=O)NC2CCN(c3nc(N4CCOCC4)c4sccc4n3)CC2)cc1 [Compound 21, ethyl 4-(3-(1-(4-morpholinothieno[3,2-d]pyrimidin-2-yl)piperidin-4-yl)ureido)benzoate]
solubility [1, 8]: 120 µg/mL (≈ 235 µM) | inhibition at 0.5 µM (PI3K-alpha): 59%

SMILES: CC(C)(C)OC(=O)NC1CCN(c2nc(N3CCOCC3)c3sccc3n2)CC1 [Compound 16, tert-butyl (1-(4-morpholino thieno[3,2-d]pyrimidin-2-yl)piperidin-4-yl)carbamate]
inhibition at 0.5 µM (PI3K-alpha): < 0%

The next lines start with results.

solubility [1, 7]: 16 µg/mL (≈ 31.1 µM)
SMILES: CS(=O)(=O)N1CCN(Cc2cc3nc(-c4cccc5[nH]ncc45)nc(N4CCOCC4)c3s2)CC1 [GDC-0941, reference compound]

inhibition at 0.5 µM (PI3K-alpha): 40%
SMILES: CCOC(=O)c1ccc(NC(=O)NC2CCN(c3nc(N4CCOCC4)c4sc(C(C)(C)O)cc4n3)CC2)cc1 [Compound 26, ethyl 4-(3-(1-(6-(2-hydroxypropan-2-yl)-4-morpholinothieno[3,2-d]pyrimidin-2-yl)piperidin-4-yl)ureido)benzoate]

solubility [1, 8]: 20 µg/mL (≈ 44.2 µM) | inhibition at 0.5 µM (PI3K-alpha): 68%
SMILES: Cc1ccccc1NC(=O)NC1CCN(c2nc(N3CCOCC3)c3sccc3n2)CC1 [Compound 23, 1-(1-(4-morpholinothieno[3,2-d]pyrimidin-2-yl)piperidin-4-yl)-3-(o-tolyl)urea]

solubility [1, 8]: 5 µg/mL (≈ 9.81 µM) | inhibition at 0.5 µM (PI3K-alpha): 54.8%
SMILES: O=S(=O)(NC1CCN(c2nc(N3CCOCC3)c3sccc3n2)CC1)c1ccc2ccccc2c1 [Compound 30, N-(1-(4-morpholinothieno [3,2-d]pyrimidin-2-yl)piperidin-4-yl)naphthalene-2-sulfonamide]

solubility [1, 8]: 20 µg/mL (≈ 38.8 µM) | inhibition at 0.5 µM (PI3K-alpha): 56%
SMILES: CC(C)(C)c1ccc(S(=O)(=O)NC2CCN(c3nc(N4CCOCC4)c4sccc4n3)CC2)cc1 [Compound 28, 4-(tert-butyl)-N-(1-(4-morpholinothieno[3,2-d]pyrimidin-2-yl)piperidin-4-yl)benzenesulfonamide]

solubility [1, 8]: 200 µg/mL (≈ 438 µM) | solubility [1, 9]: > 200 µg/mL | % PI3Kα inhibition at 500 nM (PI3K-alpha): 76% | inhibition at 0.5 µM (PI3K-alpha): > 70%
SMILES: O=C(Nc1ccccc1F)NC1CCN(c2nc(N3CCOCC3)c3sccc3n2)CC1 [Compound 25, 1-(2-fluorophenyl)-3-(1-(4-morpholinothieno[3,2-d]pyrimidin-2-yl)piperidin-4-yl)urea]

inhibition at 0.5 µM (PI3K-alpha): 33%
SMILES: COc1ccc(S(=O)(=O)NC2CCN(c3nc(N4CCOCC4)c4sccc4n3)CC2)cc1 [Compound 27, 4-methoxy-N-(1-(4-morpholinothieno[3,2-d]pyrimidin-2-yl)piperidin-4-yl)benzenesulfonamide]

% PI3Kα inhibition at 500 nM (PI3K-alpha): 70% | inhibition at 0.5 µM (PI3K-alpha): > 70%
SMILES: O=C(Nc1ccc(C(F)(F)F)cc1)NC1CCN(c2nc(N3CCOCC3)c3sccc3n2)CC1 [Compound 24, 1-(1-(4-morpholinothieno[3,2-d]pyrimidin-2-yl)piperidin-4-yl)-3-(4-(trifluoromethyl)phenyl)urea]
IC50 [3]: 9 µM | IC50 [4]: 8 µM | IC50 (A-549 (lung cancer)): 13 µM

solubility [1, 7]: 5 µg/mL (≈ 14.4 µM)
SMILES: Oc1cccc(-c2nc(N3CCOCC3)c3oc4ncccc4c3n2)c1 [PI-103, reference compound]
metabolism [6]: rapid metabolism
